Like-named read-outs stand apart in the source and are kept apart here.
Test system: IL-1β secretion in THP-1 cells (NLRP3)
Experiment: IL-1β secretion assay in PMA-differentiated THP-1 cells stimulated with LPS and nigericin (ELISA readout)
Format: cell-based
Conditions: IL-1β ELISA
Procedure: Compounds as provided herein were tested in the following assay. Cell culture medium employed contained RPMI 1640 medium (89%), FBS (10%), Pen/Strep (1%), and 2-mercaptoethanol (0.05 mM). Freezing medium was made up of 90% FBS and 10% DMSO. THP-1 cells were removed from the liquid nitrogen and placed into a 37° C. water bath to thaw, until signs of ice dissipated. The cells were then added to 9 mL of warm cell culture medium and centrifuged for 5 minutes at 1000 rpm. The supernatant was discarded, and the cells were resuspended in new cell culture medium. THP-1 cells were then split and cultured in the cell culture medium, being passaged every 2-3 days with the cell density will be maintained between 5×10^5 and 1.5×10^6 viable cells/mL.
To freeze, cells were resuspended with fresh freezing medium, adjusting the cell density to 5×10^6 cells/mL. The cell suspension was partitioned into 1 mL aliquots per vial, and the vials were transferred to a −80° C. freezer. After one day at −80° C., the cell vials were transferred to liquid nitrogen freezer for storage.
PMA was dissolved in DMSO to make a stock solution at 5 mg/ml and stored in 10 μl aliquots at −20° C. for single use. PMA is added to normal growth medium. LPS was diluted with 1 mL of water solution to provide a 1 mg/mL stock solution and stored in 15 μl aliquots at −20° C. for single use. Nigericin is diluted in ice cold 100% ethanol to 5 mg/ml (6.7 mM) and stored in 75 μL aliquots at −20° C. for single use. Serum-free media contains RPMI 1640 medium (99%), Pen/Strep (1%), and 2-mercaptoethanol (0.05 mM). The two control conditions used to qualify and normalize test compound dose-response curves were as follows: High Control=25 ng/mL LPS, […], 0.5% DMSO, Low Control=25 ng/mL, LPS, 0.5% DMSO.
THP-1 cells were diluted to provide a suspension at a concentration of 1.0×10^6 cells/mL with the total volume of suspension required to enable the desired number of assay plates. The growth media was supplemented with PMA (5 ng/mL final concentration) and the cells were incubated at 37° C. under a humidified atmosphere of 5% CO2 for 40 h.
All media was carefully aspirated from each culture flask. The cells were washed carefully with 1×DPBS. The cells were then briefly digested with trypsin LE for 5 minutes at 23° C. and immediately resuspended in cell growth media. After resuspension, the cells were centrifuged at 1000 rpm for 3 minutes and the supernatant was discarded. The cells were resuspended in DPBS and once again centrifuged at 1000 rpm for 5 minutes. The supernatant was discarded and the cell pellet was resuspended in serum-free media supplemented with LPS (25 ng/mL final concentration) to enable the distribution of 30K THP-1 cells within 45 μL of media into each well of 384-well PDL-coated plates. The 384-well plates were then incubated at 37° C. under a humidified atmosphere of 5% CO2 for 2 h. Following this period, test compounds were dispensed by Tecan across the desired concentration range with all wells normalized to a final 0.5% DMSO concentration. The plates were then then incubated at 37° C. under a humidified atmosphere of 5% CO2 for 1 h. Following this period, 5 μL of the 5 mg/mL nigericin stock solution was added to each of the appropriate wells and plates were centrifuged at 1000 rpm for 30 seconds. The plates were the immediately reintroduced to the incubator at 37° C. under a humidified atmosphere of 5% CO2 for 2 h. After this time, 35 μL/well of supernatant was collected and transferred into v-bottom plate and centrifuged at 1000 rpm for 1 minute. These supernatant aliquots were analyzed using an IL-Iβ detection kit as described below. If needed, the test samples could be snap frozen and stored at −80° C. until analyzed.
To prepare each ELISA plate, capture antibody (mAb Mt175) was diluted with PBS to a final concentration of […] and then 20 µL of this solution was added to each well of the ELISA plate.
Each plate was allowed to incubate overnight at 4° C. […]

[1] = Homo sapiens, THP-1, Table 3, LPS 25 ng/mL + nigericin, read-out: Activity (IC50 class)
[2] = Table 4, LPS 25 ng/mL + nigericin, read-out: Activity (IC50)
[3] = Homo sapiens, THP-1, Table 4, LPS 25 ng/mL + nigericin, read-out: Activity (IC50)
[4] = Table 3, LPS 25 ng/mL + nigericin, read-out: Activity (IC50 class)

## C[C@]1(O)C[C@@H](NC(=O)Cn2nc(OC3CC4(C3)CC4(F)F)c3cc(Br)ccc3c2=O)C1 (single isomer, unassigned) [Example 19, 2-[6-bromo-4-(2,2-difluorospiro[2.3]hexan-5-yl)oxy-1-oxophthalazin-2-yl]-N-(cis-3-hydroxy-3-methylcyclobutyl)acetamide]
[1]
  IC50: < 1000 nM
[2]
  IC50: 179 nM

## COc1nn(CC(=O)Nc2ncc(F)cn2)c(=O)c2ccc(C3CC3)c(OC)c12 [Example 33, 2-(6-cyclopropyl-4,5-dimethoxy-1-oxophthalazin-2-yl)-N-(5-fluoropyrimidin-2-yl)acetamide]
[1]
  IC50: < 1000 nM
[3]
  IC50: 625 nM

## O=C(Cn1nc(OC2CC2)c2cc(OC(F)F)ccc2c1=O)Nc1ncc(F)cn1 [Example 37, 2-[4-cyclopropyloxy-6-(difluoromethoxy)-1-oxophthalazin-2-yl]-N-(5-fluoropyrimidin-2-yl)acetamide]
[1]
  IC50: < 1000 nM
[3]
  IC50: 424 nM

## C[C@@H]1CC1Oc1nn(CC(=O)N[C@H]2C[C@@](C)(O)C2)c(=O)c2ccc(Br)cc12 (single isomer, unassigned) [Example 8, 2-[6-bromo-4-[trans-2-methylcyclopropyl]oxy-1-oxophthalazin-2-yl]-N-(cis-3-hydroxy-3-methylcyclobutyl)acetamide]
[4]
  IC50: < 1000 nM
[2]
  IC50: 728 nM

## Cc1cnc(NC(=O)Cn2nc(OC3CC4(C3)CC4(F)F)c3cc(Br)ccc3c2=O)nc1 (single isomer, unassigned) [Example 22, 2-[6-bromo-4-(2,2-difluorospiro[2.3]hexan-5-yl)oxy-1-oxophthalazin-2-yl]-N-(5-methylpyrimidin-2-yl)acetamide]
[4]
  IC50: < 1000 nM
[2]
  IC50: 815 nM

## C[C@@H]1CC1Oc1nn(CC(=O)Nc2ncc(F)cn2)c(=O)c2ccc(Br)cc12 (single isomer, unassigned) [Example 2, 2-[6-bromo-4-[2-trans-methylcyclopropyl]oxy-1-oxophthalazin-2-yl]-N-(5-fluoropyrimidin-2-yl)acetamide]
[1]
  IC50: < 1000 nM
[2]
  IC50: 202 nM

## C[C@@H]1CC1Oc1nn(CC(=O)Nc2ncc(F)cn2)c(=O)c2ccc(Br)cc12 (stereo in doubt) [Example 52, 2-[6-bromo-4-[cis-2-methylcyclopropyl]oxy-1-oxophthalazin-2-yl]-N-(5-fluoropyrimidin-2-yl)acetamide]
[1]
  IC50: < 1000 nM
[3]
  IC50: 924 nM

## O=C(Cn1nc(OC2CC2(F)F)c2cc(Br)ccc2c1=O)Nc1ncc(F)cn1 (single isomer, unassigned) [Example 18, 2-[6-bromo-4-[2,2-difluorocyclopropyl]oxy-1-oxophthalazin-2-yl]-N-(5-fluoropyrimidin-2-yl)acetamide]
[4]
  IC50: 1000 to 10000 nM
[2]
  IC50: 1510 nM

## O=C(Cn1nc(OC2C[C@H]2F)c2cc(Br)ccc2c1=O)Nc1ncc(F)cn1 (stereo partly drawn) [Example 54, 2-[6-bromo-4-[2-cis-fluorocyclopropyl]oxy-1-oxophthalazin-2-yl]-N-(5-fluoropyrimidin-2-yl)acetamide]
[3]
  IC50: 490 nM

## N#Cc1cnc(NC(=O)Cn2nc(OC3CC4(CC4)C3)c3cc(Br)ccc3c2=O)nc1 [Example 30, 2-(6-bromo-1-oxo-4-spiro[2.3]hexan-5-yloxyphthalazin-2-yl)-N-(5-cyanopyrimidin-2-yl)acetamide]
[1]
  IC50: < 1000 nM
[3]
  IC50: 50 nM

## C[C@]1(O)C[C@@H](NC(=O)Cn2nc(OC3CC3)c3cc(Br)ccc3c2=O)C1 [Example 23, 2-(6-bromo-4-cyclopropyloxy-1-oxophthalazin-2-yl)-N-(cis-3-hydroxy-3-methylcyclobutyl)acetamide]
[1]
  IC50: < 1000 nM
[3]
  IC50: 312 nM

## O=C(Cn1nc(OC2CC2)c2cc(I)ccc2c1=O)Nc1ncc(F)cn1 [Example 28, 2-(4-cyclopropyloxy-6-iodo-1-oxophthalazin-2-yl)-N-(5-fluoropyrimidin-2-yl)acetamide]
[1]
  IC50: < 1000 nM
[3]
  IC50: 21 nM

## O=C(Cn1nc(OCC(F)F)c2cc(Br)ccc2c1=O)Nc1ncc(F)cn1 [Example 48, 2-[6-bromo-4-(2,2-difluoroethoxy)-1-oxophthalazin-2-yl]-N-(5-fluoropyrimidin-2-yl)acetamide]
[1]
  IC50: < 1000 nM
[3]
  IC50: 568 nM

## O=C(Cn1nc(OC2CC3(C2)CC(F)(F)C3)c2cc(C3(F)CC3)ccc2c1=O)Nc1ncc(F)cn1 [Example 15, 2-[4-(2,2-difluorospiro[3.3]heptan-6-yl)oxy-6-(1-fluorocyclopropyl)-1-oxophthalazin-2-yl]-N-(5-fluoropyrimidin-2-yl)acetamide]
[1]
  IC50: < 1000 nM
[3]
  IC50: 19 nM

## O=C(Cn1nc(OC2CC3(C2)CC3(F)F)c2cc(C3(F)CC3)ccc2c1=O)Nc1ncc(F)cn1 (single isomer, unassigned) [Example 13, 2-[4-(2,2-difluorospiro[2.3]hexan-5-yl)oxy-6-(1-fluorocyclopropyl)-1-oxophthalazin-2-yl]-N-(5-fluoropyrimidin-2-yl)acetamide]
[1]
  IC50: < 1000 nM
[2]
  IC50: 34 nM

## C[C@]1(O)C[C@@H](NC(=O)Cn2nc(OC3CC4(C3)CC(F)(F)C4)c3cc(Br)ccc3c2=O)C1 [Example 16, 2-[6-bromo-4-(2,2-difluorospiro[3.3]heptan-6-yl)oxy-1-oxophthalazin-2-yl]-N-(cis-3-hydroxy-3-methylcyclobutyl)acetamide]
[1]
  IC50: < 1000 nM
[3]
  IC50: 137 nM

## O=C(Cn1nc(OC2CC2(F)F)c2cc(Br)ccc2c1=O)Nc1ncc(F)cn1 (single isomer, unassigned) [Example 17, 2-[6-bromo-4-[2,2-difluorocyclopropyl]oxy-1-oxophthalazin-2-yl]-N-(5-fluoropyrimidin-2-yl)acetamide]
[1]
  IC50: < 1000 nM
[2]
  IC50: 70 nM

## O=C(Cn1nc(OCC2CC2)c2cc(Br)ccc2c1=O)Nc1ncc(F)cn1 [Example 50, 2-[6-bromo-4-(cyclopropylmethoxy)-1-oxophthalazin-2-yl]-N-(5-fluoropyrimidin-2-yl)acetamide]
[1]
  IC50: < 1000 nM
[3]
  IC50: 343 nM

## Cc1cnc(NC(=O)Cn2nc(OC3C[C@H]3C)c3cc(Br)ccc3c2=O)nc1 (single isomer, unassigned) [Example 9, 2-[6-bromo-4-[trans-2-methylcyclopropyl]oxy-1-oxophthalazin-2-yl]-N-(5-methylpyrimidin-2-yl)acetamide]
[1]
  IC50: < 1000 nM
[2]
  IC50: 554 nM

## O=C(Cn1nc(OC2CC3(C2)CC3(F)F)c2cc(Br)ccc2c1=O)Nc1ncc(F)cn1 (single isomer, unassigned) [Example 6, 2-[6-bromo-4-(2,2-difluorospiro[2.3]hexan-5-yl)oxy-1-oxophthalazin-2-yl]-N-(5-fluoropyrimidin-2-yl)acetamide]
[4]
  IC50: < 1000 nM
[2]
  IC50: 308 nM

## COc1nn(CC(=O)Nc2ncc(F)cn2)c(=O)c2ccc(C3(F)CC3)cc12 [Example 11, 2-[6-(1-fluorocyclopropyl)-4-methoxy-1-oxophthalazin-2-yl]-N-(5-fluoropyrimidin-2-yl)acetamide]
[1]
  IC50: < 1000 nM
[3]
  IC50: 136 nM

## O=C(Cn1nc(OC2CC2)c2cc(Cl)ccc2c1=O)Nc1ncc(F)cn1 [Example 34, 2-(6-chloro-4-cyclopropyloxy-1-oxophthalazin-2-yl)-N-(5-fluoropyrimidin-2-yl)acetamide]
[1]
  IC50: < 1000 nM
[3]
  IC50: 408 nM

Reference: US20250145592A1 (NICO Therapeutics, Inc., priority 2022, published 2025)
